This note sets out measurements from patent US10174035B2, “6-morpholinyl-2-pyrazolyl-9H-purine derivatives and their use as PI3K inhibitors” (Daiichi Sankyo Company, Limited, priority 2015, dated 2019).

This assay has as its target recombinant PI3K δ enzyme (Homo sapiens (Human), UniProt O00329). The experiment in a line: In vitro enzyme assay (Kinase-Glo luminescent kinase assay), PI3Kδ. In kind it is biochemical. The protocol: The Kinase-Glo luminescent kinase assay kit (from Promega) was used to measure kinase activity. In this assay, amount of ATP remaining in solution following a kinase reaction is measured. The effect of compounds on PI3Kδ inhibition was carried out by adding 2.29 μg/ml of recombinant PI3K δ enzyme (Proteros, Germany) to reaction mixture containing assay buffer (50 mM HEPES, pH 7.4, 50 mM NaCl, 0.05% CHAPS) supplemented with 10 mM MgCl2, 5 mM DTT, 60 μM Phosphatidyl inositol bisphosphate (PIP2) and 10 μM ATP in the absence or presence of different concentrations of the compounds in a final volume of 15 μl/well, in a 384 well plate. The reaction mixture was incubated for 2 hours at room temperature. At the end of incubation period the equal volume of Kinase-Glo plus (Promega, V3772), was added per well and the luminescence was measured after incubating for 10 minutes at room temperature in dark. Results were calculated by measuring the luminescence units of test samples to blanks containing no enzyme.
The compounds of the present invention were tested for their selectivity for PI3Kδ over PI3Kα, PI3Kβ and PI3Kγ following the above assay using specific recombinant enzymes (Proteros, Germany) for each kinase. Assay condition of kinase assay (PI3Kα, PI3Kβ, PI3Kγ and PI3Kδ) was as follows. Enzyme: 2.29 μg/mL; ATP: 10 μM; PIP2 substrate: 60 μM and Reaction Time: 2 hours.
In general terms: In Kinase-Glo more light means more ATP remaining.

recombinant PI3K δ enzyme, sequence (O00329 whole entry, species assumed): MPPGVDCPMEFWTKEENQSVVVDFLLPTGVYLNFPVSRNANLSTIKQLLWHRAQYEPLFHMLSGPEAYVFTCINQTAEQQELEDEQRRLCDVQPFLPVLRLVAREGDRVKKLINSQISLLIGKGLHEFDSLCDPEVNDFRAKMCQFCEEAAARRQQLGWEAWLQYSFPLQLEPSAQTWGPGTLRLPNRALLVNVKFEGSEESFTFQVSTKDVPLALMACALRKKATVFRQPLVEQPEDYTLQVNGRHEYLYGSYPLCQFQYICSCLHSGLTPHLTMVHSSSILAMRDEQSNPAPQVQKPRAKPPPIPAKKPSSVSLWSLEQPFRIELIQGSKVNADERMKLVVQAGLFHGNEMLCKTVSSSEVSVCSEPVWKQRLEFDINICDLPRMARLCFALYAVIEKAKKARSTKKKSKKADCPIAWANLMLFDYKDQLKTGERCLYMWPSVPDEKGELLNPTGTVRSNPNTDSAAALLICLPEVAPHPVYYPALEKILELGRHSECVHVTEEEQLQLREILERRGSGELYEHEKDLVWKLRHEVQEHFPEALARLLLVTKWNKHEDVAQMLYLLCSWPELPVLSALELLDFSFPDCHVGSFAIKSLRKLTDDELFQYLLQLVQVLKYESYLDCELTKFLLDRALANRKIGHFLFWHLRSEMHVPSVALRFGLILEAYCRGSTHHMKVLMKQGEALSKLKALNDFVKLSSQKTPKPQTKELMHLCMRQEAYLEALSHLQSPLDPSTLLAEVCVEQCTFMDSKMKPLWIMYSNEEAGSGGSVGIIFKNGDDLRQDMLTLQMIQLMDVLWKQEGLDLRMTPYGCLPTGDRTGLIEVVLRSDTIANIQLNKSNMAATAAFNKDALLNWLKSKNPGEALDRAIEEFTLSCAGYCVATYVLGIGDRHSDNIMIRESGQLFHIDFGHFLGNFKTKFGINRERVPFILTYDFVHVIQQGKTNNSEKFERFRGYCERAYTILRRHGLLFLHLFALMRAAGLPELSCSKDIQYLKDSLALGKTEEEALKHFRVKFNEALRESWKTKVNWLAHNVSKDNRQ
recombinant PI3K δ enzyme, sequence (P27986 whole entry partner, species assumed): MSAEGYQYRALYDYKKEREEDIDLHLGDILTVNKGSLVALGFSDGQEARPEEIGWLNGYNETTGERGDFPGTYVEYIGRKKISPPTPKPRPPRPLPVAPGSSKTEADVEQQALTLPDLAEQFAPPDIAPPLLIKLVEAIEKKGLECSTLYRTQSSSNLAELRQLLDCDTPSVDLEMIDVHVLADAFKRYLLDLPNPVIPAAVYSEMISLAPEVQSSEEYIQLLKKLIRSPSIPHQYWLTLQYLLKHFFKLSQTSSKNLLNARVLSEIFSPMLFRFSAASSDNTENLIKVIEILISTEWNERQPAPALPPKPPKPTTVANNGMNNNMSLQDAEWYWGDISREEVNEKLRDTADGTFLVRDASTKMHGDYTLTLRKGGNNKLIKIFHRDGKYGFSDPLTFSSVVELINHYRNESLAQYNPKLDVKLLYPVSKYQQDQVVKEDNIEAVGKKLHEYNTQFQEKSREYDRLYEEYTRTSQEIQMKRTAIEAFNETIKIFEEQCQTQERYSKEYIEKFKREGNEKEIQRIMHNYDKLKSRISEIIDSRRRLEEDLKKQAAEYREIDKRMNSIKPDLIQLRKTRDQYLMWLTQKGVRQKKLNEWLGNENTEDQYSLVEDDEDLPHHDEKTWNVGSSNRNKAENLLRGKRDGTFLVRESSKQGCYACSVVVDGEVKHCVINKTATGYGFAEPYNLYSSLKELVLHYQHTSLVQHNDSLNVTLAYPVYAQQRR

Broadly, the IC50 is the concentration at which inhibition is half-maximal. As for `CN1CCN(CCNC(=O)c2nc3c(N4CCOCC4)nc(-c4cnn(C)c4)nc3[nH]2)CC1` [compound 70, N-[2-(4-methylpiperazin-1-yl)ethyl]-2-(1-methyl-1H-pyrazol-4-yl)-6-(morpholin-4-yl)-9H-purine-8-carboxamide], the 50% inhibitory concentration (IC50) is 54 nM.

For `Cc1nn(C)cc1-c1nc(N2CCOCC2)c2nc(C(=O)NCC3(CO)COC3)[nH]c2n1` [compound 71, 2-(1,3-Dimethyl-1H-pyrazol-4-yl)-N-{[3-(hydroxymethyl)oxetan-3-yl]methyl}-6-(morpholin-4-yl)-9H-purine-8-carboxamide], the 50% inhibitory concentration (IC50) was 30 nM. `Cn1cc(-c2nc(N3CCOCC3)c3nc(C(=O)NCCCN4CCCC4=O)n(C)c3n2)cn1` [compound 73, 9-Methyl-2-(1-methyl-1H-pyrazol-4-yl)-6-(morpholin-4-yl)-N-[3-(2-oxopyrrolidin-1-yl)propyl]-9H-purine-8-carboxamide]: the IC50 came to 60 nM.

Take `O=C(c1nc2c(N3CCOCC3)nc(-c3cn[nH]c3)nc2[nH]1)N1CCC(N2CCOCC2=O)CC1` [compound 74, 4-(1-{[6-(Morpholin-4-yl)-2-(1H-pyrazol-4-yl)-9H-purin-8-yl]carbonyl}piperidin-4-yl)morpholin-3-one]: the IC50 is 8 nM. With `Cn1cc(-c2nc(N3CCOCC3)c3nc(C(=O)NCC(C)(C)CO)[nH]c3n2)cn1` [compound 76, N-(3-hydroxy-2,2-dimethylpropyl)-2-(1-methyl-1H-pyrazol-4-yl)-6-(morpholin-4-yl)-9H-purine-8-carboxamide], the IC50 turned out to be 101 nM. As for `Cn1cc(-c2nc3[nH]c(C(=O)N4CCN5C(=O)COC[C@H]5C4)nc3c(N3CCOCC3)c2F)cn1` [compound 80, (9aR)-8-{[6-Fluoro-5-(1-methyl-1H-pyrazol-4-yl)-7-(morpholin-4-yl)-3H-imidazo[4,5-b]pyridin-2-yl]carbonyl}hexahydropyrazino[2,1-c][1,4]oxazin-4(3H)-one], the IC50 was 194 nM. On to `Cn1cc(-c2nc3[nH]c(C(=O)N4CCN(C5CCOCC5)CC4)nc3c(N3CCOCC3)c2F)cn1` [compound 81, [6-Fluoro-5-(1-methyl-1H-pyrazol-4-yl)-7-(morpholin-4-yl)-3H-imidazo[4,5-b]pyridin-2-yl][4-(tetrahydro-2H-pyran-4-yl)piperazin-1-yl]methanone], for which the IC50 was found to be 7 nM. The same measure for `Cc1nn(C)cc1-c1nc2c(nc(C(=O)N3CCC(N4CCOCC4)CC3)n2CC2CC2)c(N2CCOCC2)c1F` [compound 83, [3-(Cyclopropylmethyl)-5-(1,3-dimethyl-1H-pyrazol-4-yl)-6-fluoro-7-(morpholin-4-yl)-3H-imidazo[4,5-b]pyridin-2-yl][4-(morpholin-4-yl)piperidin-1-yl]methanone]: 92 nM; for `Cc1nn(C)c(C)c1-c1nc2[nH]c(C(=O)N3CCC(N4CCOCC4)CC3)nc2c(N2CCOCC2)c1C` [compound 88, [6-Methyl-7-(morpholin-4-yl)-5-(1,3,5-trimethyl-1H-pyrazol-4-yl)-3H-imidazo[4,5-b]pyridin-2-yl][4-(morpholin-4-yl)piperidin-1-yl]methanone]: 365 nM; for `Cc1nn(C)cc1-c1nc2[nH]c(C(=O)N3CCC(N4CCOCC4)CC3)nc2c(N2CCOCC2)c1C` [compound 89, [5-(1,3-Dimethyl-1H-pyrazol-4-yl)-6-methyl-7-(morpholin-4-yl)-3H-imidazo[4,5-b]pyridin-2-yl][4-(morpholin-4-yl)piperidin-1-yl]methanone]: 46 nM. As for `Cc1c(-c2cnn(C)c2)nc2[nH]c(C(=O)N3CCC(N4CCOCC4)CC3)nc2c1N1CCOCC1` [compound 90, [6-Methyl-5-(1-methyl-1H-pyrazol-4-yl)-7-(morpholin-4-yl)-3H-imidazo[4,5-b]pyridin-2-yl][4-(morpholin-4-yl)piperidin-1-yl]methanone], the IC50 worked out at 188 nM.

As to `Cc1nn(C)cc1-c1nc2[nH]c(C(=O)N3CCC(N4CCOCC4)CC3)nc2c(N2CCOCC2)c1Cl` [compound 91, [6-Chloro-5-(1,3-dimethyl-1H-pyrazol-4-yl)-7-(morpholin-4-yl)-3H-imidazo[4,5-b]pyridin-2-yl][4-(morpholin-4-yl)piperidin-1-yl]methanone], the concentration for half-maximal inhibition (IC50) is 31 nM. The figure for `Cn1cc(-c2nc3[nH]c(C(=O)N4CCC(N5CCOCC5)CC4)nc3c(N3CCOCC3)c2Cl)cn1` [compound 92, [6-Chloro-5-(1-methyl-1H-pyrazol-4-yl)-7-(morpholin-4-yl)-3H-imidazo[4,5-b]pyridin-2-yl][4-(morpholin-4-yl)piperidin-1-yl]methanone] is 163 nM. For the compound `Cc1c(-c2nc3[nH]c(C(=O)N4CCC(N5CCOCC5)CC4)nc3c(N3CCOCC3)c2F)cnn1C` [compound 95, [5-(1,5-Dimethyl-1H-pyrazol-4-yl)-6-fluoro-7-(morpholin-4-yl)-3H-imidazo[4,5-b]pyridin-2-yl][4-(morpholin-4-yl)piperidin-1-yl]methanone], the half-maximal inhibitory concentration (IC50) came out at 202 nM. On to `CN(C)C1CCN(C(=O)c2nc3c(N4CCOCC4)cc(-c4cnn(C)c4)nc3n2C)CC1` [compound 100, [4-(Dimethylamino)piperidin-1-yl][3-methyl-5-(1-methyl-1H-pyrazol-4-yl)-7-(morpholin-4-yl)-3H-imidazo[4,5-b]pyridin-2-yl]methanone], for which the IC50 turned out to be 64 nM. Take `CN(C)C1CCN(C(=O)c2nc3c(N4CCOCC4)cc(-c4cnn(C)c4)nc3[nH]2)CC1` [compound 101, [4-(Dimethylamino)piperidin-1-yl][5-(1-methyl-1H-pyrazol-4-yl)-7-(morpholin-4-yl)-3H-imidazo[4,5-b]pyridin-2-yl]methanone]: the 50% inhibitory concentration (IC50) stood at 41 nM. The figure for `Cn1cc(-c2cc(N3CCOCC3)c3nc(C(=O)NCCN4CCOCC4)[nH]c3n2)cn1` [compound 103, 5-(1-Methyl-1H-pyrazol-4-yl)-7-(morpholin-4-yl)-N-[2-(morpholin-4-yl)ethyl]-3H-imidazo[4,5-b]pyridine-2-carboxamide] is 147 nM; for `Cc1nn(C)cc1-c1cc(N2CCOCC2)c2nc(C(=O)N3CCC(N4CCOCC4)CC3)n(C)c2n1` [compound 104, [5-(1,3-Dimethyl-1H-pyrazol-4-yl)-3-methyl-7-(morpholin-4-yl)-3H-imidazo[4,5-b]pyridin-2-yl][4-(morpholin-4-yl)piperidin-1-yl]methanone] it is 22 nM.

In the case of `Cn1cc(-c2nc3[nH]c(C(=O)NCCN4CCOCC4)nc3c(N3CCOCC3)c2F)cn1` [compound 105, 6-Fluoro-5-(1-methyl-1H-pyrazol-4-yl)-7-(morpholin-4-yl)-N-[2-(morpholin-4-yl)ethyl]-3H-imidazo[4,5-b]pyridine-2-carboxamide], the 50% inhibitory concentration (IC50) stood at 32 nM.

As for `Cn1cc(-c2cc(N3CCOCC3)c3nc(C(=O)N4CCC(N5CCOCC5)CC4)n(C)c3n2)cn1` [compound 106, [3-Methyl-5-(1-methyl-1-pyrazol-4-yl)-7-(morpholin-4-yl)-3H-imidazo[4,5-b]pyridin-2-yl][4-(morpholin-4-yl)piperidin-1-yl]methanone], the half-maximal inhibitory concentration (IC50) was determined as 30 nM. On to `Cc1nn(C)cc1-c1nc2c(nc(C(=O)N3CCC(C(C)(C)O)CC3)n2C)c(N2CCOCC2)c1F` [compound 107, [5-(1,3-Dimethyl-1H-pyrazol-4-yl)-6-fluoro-3-methyl-7-(morpholin-4-yl)-3H-imidazo[4,5-b]pyridin-2-yl][4-(2-hydroxypropan-2-yl)piperidin-1-yl]methanone], for which the IC50 is 58 nM. The same measure for `Cn1cc(-c2nc3c(nc(C(=O)N4CCC5(CC4)COC5)n3C)c(N3CCOCC3)c2F)cn1` [compound 108, [6-Fluoro-3-methyl-5-(1-methyl-1-pyrazol-4-yl)-7-(morpholin-4-yl)-3H-imidazo[4,5-b]pyridin-2-yl](2-oxa-7-azaspiro[3.5]non-7-yl)methanone]: 131 nM; for `C[C@@H]1CN(C2CCN(C(=O)c3nc4c(N5CCOCC5)cc(-c5cnn(C)c5)nc4[nH]3)CC2)C[C@H](C)O1` [compound 109, {4-[cis-2,6-Dimethylmorpholin-4-yl]piperidin-1-yl}[5-(1-methyl-1H-pyrazol-4-yl)-7-(morpholin-4-yl)-3H-imidazo[4,5-b]pyridin-2-yl]methanone]: 19 nM; for `C[C@@H]1CN(C2CCN(C(=O)c3nc4c(N5CCOCC5)cc(-c5cnn(C)c5)nc4n3C)CC2)C[C@H](C)O1` [compound 110, {4-[cis-2,6-Dimethylmorpholin-4-yl]piperidin-1-yl}[3-methyl-5-(1-methyl-1H-pyrazol-4-yl)-7-(morpholin-4-yl)-3H-imidazo[4,5-b]pyridin-2-yl]methanone]: 63 nM.

`Cn1cc(-c2nc3c(nc(C(=O)N4CCC(N5CCOCC5)CC4)n3C)c(N3CCOCC3)c2F)cn1` [compound 111, [6-Fluoro-3-methyl-5-(1-methyl-1-pyrazol-4-yl)-7-(morpholin-4-yl)-3H-imidazo[4,5-b]pyridin-2-yl][4-(morpholin-4-yl)piperidin-1-yl]methanone]: the 50% inhibitory concentration (IC50) came to 184 nM. Take `Cc1nn(C)cc1-c1nc2c(nc(C(=O)N3CCC(N4C[C@@H](C)O[C@@H](C)C4)CC3)n2C)c(N2CCOCC2)c1F` [compound 112, {4-[cis-2,6-Dimethylmorpholin-4-yl]piperidin-1-yl}[5-(1,3-dimethyl-1H-pyrazol-4-yl)-6-fluoro-3-methyl-7-(morpholin-4-yl)-3H-imidazo[4,5-b]pyridin-2-yl]methanone]: the half-maximal inhibitory concentration (IC50) was 15 nM.
